The source made the active and inactive calls.
How the values were obtained:
Cytochrome P450 1A2 = target: T1, Cytochrome P450 1A2 (Homo sapiens, UniProt P05177);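 note: PubChem cytochrome P450 panel assay, CYP1A2 panel member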
T1 sequence (P05177 whole entry): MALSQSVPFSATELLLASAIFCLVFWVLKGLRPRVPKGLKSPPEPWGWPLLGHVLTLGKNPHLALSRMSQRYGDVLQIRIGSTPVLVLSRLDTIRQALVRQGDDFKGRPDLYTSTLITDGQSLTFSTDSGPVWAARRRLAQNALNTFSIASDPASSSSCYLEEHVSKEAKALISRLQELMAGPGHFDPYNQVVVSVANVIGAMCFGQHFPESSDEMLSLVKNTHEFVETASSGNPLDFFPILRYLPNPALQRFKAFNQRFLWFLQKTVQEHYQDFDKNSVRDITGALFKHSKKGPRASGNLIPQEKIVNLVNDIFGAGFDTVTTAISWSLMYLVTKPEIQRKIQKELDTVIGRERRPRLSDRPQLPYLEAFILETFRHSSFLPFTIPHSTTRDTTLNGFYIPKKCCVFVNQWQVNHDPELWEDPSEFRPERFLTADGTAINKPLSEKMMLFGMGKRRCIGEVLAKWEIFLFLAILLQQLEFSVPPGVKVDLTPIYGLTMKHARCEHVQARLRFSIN

Cytochrome P450 3A4 = Cytochrome P450 3A4 (Homo sapiens, UniProt P08684);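 note: CYP3A4 tested as one member of a cytochrome P450 panel screen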
Sequence of Cytochrome P450 3A4 (P08684 whole entry): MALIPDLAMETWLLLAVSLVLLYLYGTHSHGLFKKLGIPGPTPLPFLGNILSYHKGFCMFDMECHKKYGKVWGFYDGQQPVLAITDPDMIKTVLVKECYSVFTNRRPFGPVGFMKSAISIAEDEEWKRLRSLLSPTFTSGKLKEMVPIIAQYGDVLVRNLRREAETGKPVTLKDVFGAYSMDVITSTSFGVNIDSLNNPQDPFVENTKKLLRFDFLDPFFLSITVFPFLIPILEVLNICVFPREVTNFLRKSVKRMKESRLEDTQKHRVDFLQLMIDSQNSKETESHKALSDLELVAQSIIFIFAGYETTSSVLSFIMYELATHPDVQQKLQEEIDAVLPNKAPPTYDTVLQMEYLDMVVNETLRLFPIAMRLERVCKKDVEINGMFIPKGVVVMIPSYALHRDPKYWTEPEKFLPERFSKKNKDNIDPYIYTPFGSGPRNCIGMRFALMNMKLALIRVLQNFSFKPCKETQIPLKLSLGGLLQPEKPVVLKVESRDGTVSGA

Cytochrome P450 2C9 = Cytochrome P450 2C9 (Homo sapiens, UniProt P11712)
Sequence of Cytochrome P450 2C9 (P11712 whole entry): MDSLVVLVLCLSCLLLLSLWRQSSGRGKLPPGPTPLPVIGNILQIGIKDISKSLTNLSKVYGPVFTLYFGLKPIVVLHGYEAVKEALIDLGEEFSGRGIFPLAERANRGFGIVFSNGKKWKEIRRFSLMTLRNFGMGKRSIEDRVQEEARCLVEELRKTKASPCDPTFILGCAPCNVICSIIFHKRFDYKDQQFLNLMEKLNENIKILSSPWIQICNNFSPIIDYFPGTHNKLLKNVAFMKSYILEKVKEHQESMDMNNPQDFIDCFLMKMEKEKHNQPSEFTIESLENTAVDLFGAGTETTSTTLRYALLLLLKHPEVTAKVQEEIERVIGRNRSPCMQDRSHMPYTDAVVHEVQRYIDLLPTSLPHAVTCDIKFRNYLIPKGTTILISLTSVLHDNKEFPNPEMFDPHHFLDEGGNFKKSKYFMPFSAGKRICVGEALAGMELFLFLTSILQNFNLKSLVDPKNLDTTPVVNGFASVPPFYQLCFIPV

[1] = target: T2, Rac GTPase-activating protein 1 (Homo sapiens, UniProt Q9H0H5); test: MgcRacGAP GTPase-activating activity inhibitors, confirmation, biochemical, ADP Hunter fluorescence, primary and confirmatory (AID 624330); format: functional
T2 sequence (Q9H0H5 whole entry): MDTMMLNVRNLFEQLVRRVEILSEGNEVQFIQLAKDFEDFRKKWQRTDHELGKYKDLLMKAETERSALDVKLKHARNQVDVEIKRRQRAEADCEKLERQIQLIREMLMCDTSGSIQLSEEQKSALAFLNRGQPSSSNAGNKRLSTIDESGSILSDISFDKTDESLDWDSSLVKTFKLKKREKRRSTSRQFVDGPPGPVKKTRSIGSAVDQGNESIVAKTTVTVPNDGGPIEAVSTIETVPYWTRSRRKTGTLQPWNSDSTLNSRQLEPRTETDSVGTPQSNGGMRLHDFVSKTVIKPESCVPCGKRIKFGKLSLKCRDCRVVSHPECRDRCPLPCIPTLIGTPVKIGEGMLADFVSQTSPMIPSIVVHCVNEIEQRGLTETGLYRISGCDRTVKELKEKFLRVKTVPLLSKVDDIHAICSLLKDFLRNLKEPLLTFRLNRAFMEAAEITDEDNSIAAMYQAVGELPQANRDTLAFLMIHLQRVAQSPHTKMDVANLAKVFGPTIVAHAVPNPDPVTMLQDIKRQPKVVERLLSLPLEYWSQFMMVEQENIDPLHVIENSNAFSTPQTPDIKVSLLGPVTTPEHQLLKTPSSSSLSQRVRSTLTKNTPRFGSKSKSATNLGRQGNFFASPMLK

[2] = target: T3, Corticotropin-releasing factor receptor 2/Corticotropin-releasing factor-binding protein (Homo sapiens, UniProt P24387+Q13324); test: Dose Response confirmation of uHTS hits for small molecule antagonists of the CRF-binding protein and CRF-R2 receptor complex.; format: functional; details: read-out: IC50_Mean
T3 sequence (Q13324 whole entry): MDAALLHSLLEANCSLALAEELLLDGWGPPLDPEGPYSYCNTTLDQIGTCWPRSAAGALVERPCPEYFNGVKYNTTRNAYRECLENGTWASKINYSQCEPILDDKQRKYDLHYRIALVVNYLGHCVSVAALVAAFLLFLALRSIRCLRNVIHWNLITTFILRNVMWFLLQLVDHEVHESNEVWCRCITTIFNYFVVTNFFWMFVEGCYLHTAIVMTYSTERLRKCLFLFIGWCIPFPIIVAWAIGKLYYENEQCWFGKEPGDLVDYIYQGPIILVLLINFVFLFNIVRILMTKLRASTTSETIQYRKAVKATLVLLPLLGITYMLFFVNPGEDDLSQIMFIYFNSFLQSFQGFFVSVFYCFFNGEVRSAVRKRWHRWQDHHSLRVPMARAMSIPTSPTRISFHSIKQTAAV
T3 sequence (P24387 whole entry): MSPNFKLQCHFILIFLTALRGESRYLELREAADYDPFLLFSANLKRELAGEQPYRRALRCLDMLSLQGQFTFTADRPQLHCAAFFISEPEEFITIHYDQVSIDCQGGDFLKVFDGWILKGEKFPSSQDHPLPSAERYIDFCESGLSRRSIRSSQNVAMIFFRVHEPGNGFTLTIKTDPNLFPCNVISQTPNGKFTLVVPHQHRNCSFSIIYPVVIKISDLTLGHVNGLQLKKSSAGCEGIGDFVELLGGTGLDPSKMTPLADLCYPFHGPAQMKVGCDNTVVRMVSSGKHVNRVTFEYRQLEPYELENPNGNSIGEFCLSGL

[3] = target: T3, Corticotropin-releasing factor receptor 2/Corticotropin-releasing factor-binding protein; test: activators of CRF receptor 2 with binding protein – uHTS hits, confirmation (AID 602473); format: functional; details: read-out: EC50_Mean
Cytochrome P450 2D6 = Cytochrome P450 2D6 (Homo sapiens, UniProt P10635);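 note: CYP2D6 member of a cytochrome P450 panel assay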
Sequence of Cytochrome P450 2D6 (P10635 whole entry): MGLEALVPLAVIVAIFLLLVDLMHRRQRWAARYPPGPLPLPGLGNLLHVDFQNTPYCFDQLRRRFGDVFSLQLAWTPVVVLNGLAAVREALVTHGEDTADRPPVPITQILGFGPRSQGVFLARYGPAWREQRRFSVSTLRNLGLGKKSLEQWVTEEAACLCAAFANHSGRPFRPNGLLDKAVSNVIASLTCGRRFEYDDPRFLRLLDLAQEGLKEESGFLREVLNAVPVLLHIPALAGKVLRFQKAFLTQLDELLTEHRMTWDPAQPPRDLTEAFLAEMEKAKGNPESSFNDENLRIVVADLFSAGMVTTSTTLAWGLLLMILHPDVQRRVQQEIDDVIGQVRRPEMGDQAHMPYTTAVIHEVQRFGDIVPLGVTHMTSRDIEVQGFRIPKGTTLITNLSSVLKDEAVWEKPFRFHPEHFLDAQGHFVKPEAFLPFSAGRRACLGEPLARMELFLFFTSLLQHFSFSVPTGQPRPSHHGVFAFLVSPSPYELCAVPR

Paired box protein Pax-8 = Paired box protein Pax-8 (Homo sapiens, UniProt Q06710); test: inhibitors of PAX8-driven TPO luciferase reporter, dose response, RMG-I cells, cherry-pick (AID 687027); format: functional, cell-based;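 note: luciferase reporter driven by Pax8 target thyroperoxidase promoter measured by SteadyGlo luminescence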
Sequence of Paired box protein Pax-8 (Q06710 whole entry): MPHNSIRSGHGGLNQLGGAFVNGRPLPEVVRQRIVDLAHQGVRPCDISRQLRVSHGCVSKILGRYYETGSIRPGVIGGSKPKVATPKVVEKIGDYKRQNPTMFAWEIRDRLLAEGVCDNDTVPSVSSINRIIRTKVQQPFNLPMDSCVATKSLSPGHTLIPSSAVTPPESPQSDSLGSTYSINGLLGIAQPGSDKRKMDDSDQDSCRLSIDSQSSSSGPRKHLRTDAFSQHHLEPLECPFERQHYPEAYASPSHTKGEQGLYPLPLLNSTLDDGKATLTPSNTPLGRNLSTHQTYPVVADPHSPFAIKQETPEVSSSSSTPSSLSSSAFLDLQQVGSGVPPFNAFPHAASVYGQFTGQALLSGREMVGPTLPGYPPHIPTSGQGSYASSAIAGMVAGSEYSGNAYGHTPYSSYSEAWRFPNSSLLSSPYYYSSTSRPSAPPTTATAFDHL

[4] = tested on: Streptococcus sp. 'group A'; test: growth inhibition of control SK(-) GAS strain, dose response, counter-screen for streptokinase expression inhibitor project, luminescence, kanamycin, BacTiterGlo, confirmation (AID 1900); format: functional, organism-based
Streptokinase A = target: T4, Streptokinase A (Streptococcus pyogenes serotype M1, UniProt P10520); test: S. pyogenes streptokinase expression inhibitors, potency, dose response, plasminogen activation absorbance, OD405 (AID 1914); format: functional, Streptococcus pyogenes M1 GAS;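 note: secreted streptokinase activity via plasminogen activation per viability signal from cell pellet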
T4 sequence (P10520 whole entry): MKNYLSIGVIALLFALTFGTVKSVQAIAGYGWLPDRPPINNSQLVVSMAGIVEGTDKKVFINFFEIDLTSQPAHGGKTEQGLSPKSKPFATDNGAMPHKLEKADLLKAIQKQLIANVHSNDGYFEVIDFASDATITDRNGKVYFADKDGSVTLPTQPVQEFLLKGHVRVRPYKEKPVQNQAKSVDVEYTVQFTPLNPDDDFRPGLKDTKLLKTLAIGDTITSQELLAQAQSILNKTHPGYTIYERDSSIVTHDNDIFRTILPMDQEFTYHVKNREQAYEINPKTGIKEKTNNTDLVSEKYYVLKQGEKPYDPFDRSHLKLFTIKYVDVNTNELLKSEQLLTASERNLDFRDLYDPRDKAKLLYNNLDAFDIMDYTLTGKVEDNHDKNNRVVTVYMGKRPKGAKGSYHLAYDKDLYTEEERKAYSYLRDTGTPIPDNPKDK

Streptococcus = test: Group A Streptococcus viability loss, dose response, counter-screen for streptokinase expression inhibitor project, luminescence, BacTiterGlo (AID 1915); format: functional, organism-based;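 note: potency for reduction of bacterial viability or growth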
[5] = Luminescence Cell-Based Dose Retest to Confirm Inhibitors of Cancer Stem Cells. [Related pubchem assays (depositor defined):AID2717, AID2721]; format: functional; details: Homo sapiens
[6] = target: T5, RNA-binding protein pos-1 (Caenorhabditis elegans, UniProt G5EF15); test: inhibitors of POS-1/mex-3 RNA binding, dose response, biochemical, fluorescence polarization (AID 1964);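 note: purified POS-1 fused to maltose binding protein made in E. coli; potency of compounds blocking POS-1 binding to fluorescent RNA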
T5 sequence (G5EF15 whole entry): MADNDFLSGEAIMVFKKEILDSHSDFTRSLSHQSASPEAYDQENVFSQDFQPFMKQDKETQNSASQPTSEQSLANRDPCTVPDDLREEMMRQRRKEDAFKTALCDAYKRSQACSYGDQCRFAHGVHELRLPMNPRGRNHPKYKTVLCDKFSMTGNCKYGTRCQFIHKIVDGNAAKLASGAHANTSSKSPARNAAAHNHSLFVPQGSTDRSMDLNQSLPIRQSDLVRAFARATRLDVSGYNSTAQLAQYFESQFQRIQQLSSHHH

COc1ccc(-c2nc3cnc(OC)nc3n(CCc3ccccc3)c2=O)cc1
AC50 (Cytochrome P450 1A2): 6.31 µM (inconclusive)
AC50 (Cytochrome P450 3A4): 10 µM (inconclusive)
AC50 (Cytochrome P450 2C9): 6.31 µM (inconclusive)

Cc1ccc(-c2nnc(S)n2/N=C/c2ccc(C(=O)O)cc2)cc1
IC50 [1]: 74.4 µM (active)

COc1ccc2[nH]c3c(=O)n(Cc4ccc(C(=O)N5CCC(C(N)=O)CC5)cc4)c(=S)[nH]c3c2c1
IC50 [1]: 61.3 µM (active)

CCCn1c(=O)c2ccccc2n2c(SCCNCCO)nnc12
IC50 [1]: 52.2 µM (active)

Brc1ccc([C@H]2CN3CCSC3=N2)cc1
AC50 (Cytochrome P450 1A2): 15.8 µM (inconclusive)
AC50 (Cytochrome P450 3A4): 25.1 µM (inconclusive)

CN(c1ccccc1)S(=O)(=O)c1ccc2c(c1)oc(=O)n2C
IC50 [2]: > 47.1 µM (inactive)
EC50 [3]: > 53 µM (inactive)

COc1ccc(-c2csc(-n3ncc(-c4cccs4)c3N)n2)cc1
AC50 (Cytochrome P450 1A2): 0.355 µM (inconclusive)
AC50 (Cytochrome P450 3A4): 8.91 µM (inconclusive)
AC50 (Cytochrome P450 2C9): 0.0501 µM (inconclusive)

O=C(CN1CCN(c2ncccn2)CC1)NCCC1=CCCCC1
AC50 (Cytochrome P450 3A4): 17.8 µM (inconclusive)

Cc1ccc(-c2cnc(NC(=O)CCC(=O)N3CCCCC3)n2C)cc1
AC50 (Cytochrome P450 2D6): 14.1 µM (inconclusive)
AC50 (Cytochrome P450 1A2): 25.1 µM (inconclusive)
AC50 (Cytochrome P450 3A4): 39.8 µM (inconclusive)

COc1cccc(S(=O)(=O)N2CC[C@H]3[C@@H](CO)N(C)c4ccc(C#Cc5ccc(F)cc5)cc4[C@H]32)c1
AC50 (Paired box protein Pax-8): 6.92 µM (active)

O=C(O)c1cccc(NC(=NS(=O)(=O)c2ccccc2)c2ccccc2)c1
IC50 [2]: > 47.1 µM (inactive)
EC50 [3]: > 53 µM (inactive)

CN(C)S(=O)(=O)c1ccc(C(=O)OCC(=O)Nc2ccc(OC(F)F)cc2)cc1
IC50 [2]: > 47.1 µM (inactive)
EC50 [3]: > 53 µM (inactive)

CCN(CC)Cc1nc(O)c2c(n1)-c1ccccc1CC21CCCC1
AC50 (Cytochrome P450 3A4): 14.1 µM (inconclusive)

CC(C)=CCc1c(O)cc2c(c1O)C(=O)CC(c1ccc(O)cc1)O2 (centres undefined)
EC50 [4]: 3.55 µM (active)
EC50 (Streptokinase A): > 150 µM (not active)
EC50 (Streptococcus): 4 µM (active)
AC50 [5]: 3.72 µM (active)

Nc1sc(-c2ccccc2)c(Cc2ccccc2)c1C(=O)O
IC50 [1]: 67.6 µM (active)

COC(=O)[C@@H]1CC[C@H](C)[C@@H](c2ccc(C)cc2)N1C(=O)c1ccc(/C=N\O[C@@H](C)c2cn([C@H]3COC[C@H]3O)nn2)cc1
AC50 (Cytochrome P450 3A4): 3.16 µM (inconclusive)
AC50 (Cytochrome P450 2C9): 3.16 µM (inconclusive)

O=C(Oc1ccccc1N1C(=O)C2CCCCC2C1=O)c1ccccc1 (centres undefined)
AC50 (Cytochrome P450 1A2): 15.8 µM (inconclusive)
AC50 (Cytochrome P450 2C9): 11.2 µM (inconclusive)

CC(C(=O)NC1CCCCC1)N1CCN(C)CC1 (centres undefined)
IC50 [1]: 93.7 µM (active)

Cc1nn(-c2ccc(F)cc2)c(Cl)c1/C=C1\C(=O)Nc2ccccc21
AC50 [5]: 1.95 µM (active)

CO[C@@H]1/C=C\CC(=O)N[C@@H](C)C(=O)OC[C@@H](OC)[C@H](C)CCCC(=O)OC[C@H]1C
AC50 (Cytochrome P450 3A4): 3.16 µM (inconclusive)

CC(=O)N1c2ccc(S(=O)(=O)N(C)CC(=O)NC3CCCC3)cc2CC1C (centres undefined)
IC50 [2]: > 47.1 µM (inactive)
EC50 [3]: > 53 µM (inactive)

CC(Cc1ccccc1)N/C=C1\CC(=O)NC1=O (centres undefined)
AC50 (Cytochrome P450 3A4): 3.98 µM (inconclusive)

CCC/C=C(\CCC)C(NC(=O)c1cccs1)c1ccc(C(F)(F)F)cc1 (centres undefined)
AC50 (Cytochrome P450 1A2): 3.16 µM (inconclusive)
AC50 (Cytochrome P450 2C9): 0.501 µM (inconclusive)

COc1cc(/C=C/C(=O)OCC(=O)NNC(=O)c2cc(Cl)ccc2OC)ccc1O
IC50 [1]: 60.5 µM (active)

C[C@H](CO)N1C[C@H](C)[C@@H](CN(C)C(=O)c2ccc3ccn(C)c3c2)OCc2cn(nn2)CCCC1=O
IC50 [2]: > 47.1 µM (inactive)
EC50 [3]: > 53 µM (inactive)

Cc1cccc(NC(=O)c2nc[nH]c2C(=O)N[C@@H](C)c2ccccc2)c1
AC50 [5]: 7.02 µM (active)

O=C(CSCc1ccccc1Br)NNC(=S)NCc1ccco1
IC50 [2]: > 47.1 µM (inactive)
EC50 [3]: > 53 µM (inactive)

C/C(=C\C1CCCCC1)C(NC(=O)c1ccc(C(F)(F)F)cc1)c1ccc(-c2ccccc2)cc1 (centres undefined)
AC50 (Cytochrome P450 3A4): 12.6 µM (inconclusive)

Oc1ccc(/C=N/Nc2nc(N3CCCC3)nc(N3CCCC3)n2)cc1O
IC50 [1]: 57.3 µM (active)

CN(C)c1ccc(/C=N\Nc2ccccn2)cc1
IC50 [1]: 31.6 µM (active)

COc1ccc(-n2cnnc2)cc1
AC50 (Cytochrome P450 1A2): 14.1 µM (inconclusive)
AC50 (Cytochrome P450 2C9): 0.0282 µM (inconclusive)

C/C(=N\NC(=S)NC(C)C)c1ccc(C(C)(C)C)cc1
AC50 [5]: 11 µM (active)

CCCCn1c(SCC(N)=O)nc2sc3c(c2c1=O)CCC3
AC50 [5]: 126 µM (active)

c1ccc(C(c2nnnn2Cc2cccs2)N2CCN(C3CCCC3)CC2)cc1 (centres undefined)
IC50 [2]: > 47.1 µM (inactive)
EC50 [3]: > 53 µM (inactive)

NC(=O)CSc1nnnn1-c1ccc2c(c1)OCCO2
IC50 [2]: > 47.1 µM (inactive)
EC50 [3]: > 53 µM (inactive)

Oc1ccc(C[C@H]2CNC(=S)N2CC2CCCN2C[C@H](Cc2ccc(O)cc2)N2C[C@H](Cc3ccc(O)cc3)N(CC3CCCCC3)C2=S)cc1 (some centres undefined)
AC50 (Paired box protein Pax-8): 6.44 µM (active)

CCOC(=O)C1=C(C)N=c2s/c(=C/c3ccc(OCC(=O)O)cc3)c(=O)n2C1c1ccc(OC)cc1OC (centres undefined)
EC50 [6]: 85.1 µM (active)
